The values below are quoted from earlier work in US12225905B2, “Antimicrobial superabsorbent compositions” (Matoke Holdings Limited, priority 2017, dated 2025).

The conditions of the data set: 20° C. and 1 atm.

For the compound `O=C(CO)[C@@H](O)[C@H](O)[C@H](O)CO` [Fructose], the solubility result was “about 375 g/100 g water”.
